Data on six molecules can be found in US8507472B2 (priority 2010, dated 2013).

Assay [1] deals with Phytophthora infestans. It counts as in vivo. The note with it: in vivo.
In assay [2] the test system is Venturia inaequalis. The assay is described as follows: Venturia test (apple)/protective. It counts as in vivo. The note with it: 100 ppm active compound, protective, evaluation 10 days after inoculation. The method in brief:
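Efficacy read 10 days after inoculation, where 100% is no infection and 0% matches untreated control. Plants kept 1 day at ~20° C and 100% relative humidity after conidia inoculation, then ~21° C and ~90% humidity; inoculation followed drying of a protective spray of compound formulated in acetone/dimethylacetamide plus emulsifier and diluted with water.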

Assay [3] deals with Alternaria solani. The assay is described as follows: Alternaria test (tomato)/protective. The format is in vivo. The settings on record: in vivo. An outline of the steps: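 Treatment was protective: spray application at the stated rate came one day before spore inoculation. Incubation was 24 h at 22 °C and 100% humidity, then 20 °C and 96% humidity. Infection was rated at day 7 as % efficacy against the control, with 100% meaning no disease.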

The test system of assay [4] is Pyricularia oryzae. The note with it: in vivo.
Assay [5] deals with Septoria tritici. The assay is described as follows: Septoria tritici test (wheat)/protective. The settings on record: in vivo. It counts as in vivo. An outline of the steps: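 Young wheat plants were sprayed protectively with compound (dimethylacetamide/emulsifier formulation diluted in water), then inoculated with Septoria tritici spores after drying. Incubation was 48 hours at 20° C and 100% humidity, then 60 hours at 15° C and 100% humidity, then greenhouse at about 15° C, 80% humidity; efficacy was scored 21 days post-inoculation (0% = control, 100% = no infection).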

Assay [6] concerns DON/AcDON production. The assay is described as follows: microbe, parasite or virus in culture. The format is cell-based, Fusarium graminearum. The settings on record: 7 days at 28° C.
Assay [7] has as its system Uromyces appendiculatus. The assay is described as follows: Uromyces test (bean)/protective. The format is in vivo. The settings on record: in vivo. The method in brief:
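Young bean plants sprayed with compound formulated in acetone/dimethylacetamide with emulsifier, inoculated with Uromyces appendiculatus spores after drying, held 1 day at ~20 °C and 100% humidity, then greenhouse ~21 °C, ~90% humidity. Efficacy scored 10 days post-inoculation, 0% = untreated control, 100% = no infection.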

The test system of assay [8] is Sphaerotheca fuliginea. The assay is described as follows: Sphaerotheca test (cucumber)/protective. The format is in vivo. The note with it: in vivo. The method in brief:
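Infection was rated 7 days after spore inoculation as % efficacy (0% = control level, 100% = no disease). Inoculation followed 1 day after preventive spray of young cucumbers with compound formulated in N,N-dimethylformamide plus emulsifier and diluted with water; plants were held at 23 °C and 70% relative humidity.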

Assay [9] relates to Leptosphaeria nodorum. The assay is described as follows: Leptosphaeria nodorum test (wheat)/protective. The format is in vivo. The settings on record: in vivo. An outline of the steps: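 Young wheat plants were sprayed protectively, then inoculated 1 day later with L. nodorum spores and held 48 h at 100% humidity and 22° C. They were then kept in a greenhouse at 90% humidity and 22° C. Efficacy was scored 7-9 days post-inoculation, where 0% equals control and 100% means no infection.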

Assay [10] relates to Puccinia triticina. The assay is described as follows: Puccinia triticina test (wheat)/protective. The format is in vivo. The settings on record: in vivo. The method in brief:
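Protective test: young wheat plants sprayed with compound (dimethylacetamide/alkylaryl polyglycol ether formulation, water-diluted) at stated rate, then inoculated with Puccinia triticina spores once dry; 48 h at 20 °C, 100% RH, then greenhouse ~20 °C, ~80% RH. Efficacy scored 8 days post-inoculation, 0% = control, 100% = no infection.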

Assay [11] has as its system Cochliobolus miyabeanus. The assay is described as follows: Cochliobolus test (rice)/protective. The format is in vivo. The settings on record: 250 ppm active compound, protective, evaluation 4 days after inoculation.
For assay [12], the system named is Botrytis cinerea. The assay is described as follows: Botrytis test (bean)/protective. The settings on record: 100 ppm active compound, protective, evaluation 2 days after inoculation. It counts as in vivo. An outline of the steps:
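Protective spray test: leaves inoculated with two B. cinerea-colonized agar plugs after the spray dried, then incubated in darkness, ~20° C., 100% relative humidity. Formulation was acetone/dimethylacetamide with emulsifier, water-diluted. Lesion size rated 2 days post-inoculation as efficacy (0% matching control, 100% infection-free).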

Assay [13] has as its system Fusarium nivale (var. majus). The assay is described as follows: Fusarium nivale (var. majus) test (wheat)/protective. It counts as in vivo. The note with it: 1000 ppm active compound, protective, evaluation 5 days after inoculation. The method in brief:
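Protective spray of young wheat plants at the stated rate (compound in dimethylacetamide with emulsifier, diluted in water), then inoculation with Fusarium nivale spores once dry. Plants kept at 10 °C and 100% humidity; scored 5 days after inoculation as % efficacy, where 0% equals untreated control and 100% means no infection.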

The test system of assay [14] is Rhizoctonia solani. The assay is described as follows: Rhizoctonia test (rice)/protective. It counts as in vivo. The settings on record: 250 ppm active compound, protective, evaluation 4 days after inoculation. On the procedure:
Solvent: 28.5 parts by weight of acetone
Emulsifier: 1.5 parts by weight of alkylaryl polyglycol ether
To produce a suitable preparation of active compound, 1 part by weight of active compound is mixed with the stated amount of solvent, and the concentrate is diluted with water and the stated amount of emulsifier to the desired concentration.
To test for protective activity, young rice plants are sprayed with the active compound preparation at the stated application rate. 1 day after the treatment, the plants are inoculated with hyphae of Rhizoctonia solani. The plants are then placed in a greenhouse at 100% relative atmospheric humidity and 25° C.
Evaluation is carried out 4 days after the inoculation. 0% means an efficacy which corresponds to that of the control, whereas an efficacy of 100% means that no infection is observed.

For assay [15], the system named is Fusarium graminearum. It counts as in vivo. The note with it: in vivo.
Assay [16] deals with Pyrenophora teres. The assay is described as follows: Pyrenophora teres test (barley)/protective. The note with it: in vivo. The format is in vivo. An outline of the steps:
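Efficacy, read 7-9 days after spore inoculation, runs from 0% (equal to untreated control) to 100% (no infection). Barley sprayed with water-diluted DMF/emulsifier formulation was inoculated one day later, incubated 48 h at 22° C. and 100% rel. humidity, then held at 20° C. and 80% humidity.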

Assay [17] has as its system Fusarium graminearum. The assay is described as follows: microbe, parasite or virus in culture. The format is cell-based. The note with it: 50 μM.
For assay [18], the system named is Gibberella zeae. The note with it: in vivo.

Several values for one entry are separate records, joined by “and”; a condition that tells them apart may be missing. Equal entries are not always repeated.

Turning to `O=C(Cc1ccccc1)Nc1cc(-c2c(-c3ccc(F)cc3)nn3c2CCCC3)ccn1` [Example 34], the efficacy in % in assay [1] turned out to be 95%; in assay [2], 95%; in [3], 100%; in assay [4], 95%; in assay [5], 93%; in assay [7], 95%. For the same molecule, the efficacy in % in assay [8] was determined as 100%; in assay [9] it was 95%; in assay [10] it was 94%; in [11] it was 90%; in assay [12], 99%; in [13] it was 100%. The efficacy in % in assay [14] is listed as 85%; in assay [15], 100%; in assay [16], 94%; in assay [18] it was 80%. In addition, the “% inhibition of DON/AcDON at 50 μM” value in assay [6] is recorded as 99%. Further, the “% inhibition of the fungal growth of Fusarium graminearum at 50 μM” value (shortened to “% inhibition of the fungal growth … at 50 μM”) in [17] is recorded as 98%.
Turning to `CC(C)C(=O)Nc1cc(-c2c(-c3ccccc3)nn3c2CCCC3)ccn1` [Example 29], the efficacy in % in assay [1] is on record as 90%; in [2], 95%; in assay [3], 100%; in assay [4], 95%; in assay [5] it was 71%; in [7], 94%. Further, the efficacy in % is recorded as 83% in [8]; 90% in assay [9]; 94% in [10]; 95% in [11]; 100% in assay [12]; 86% in [13]. Besides, the efficacy in % is recorded as 100% in assay [14], 94% in [15], 100% in assay [16] and 80% in assay [18]. In addition, the “% inhibition of DON/AcDON at 50 μM” value in assay [6] was 99%. Besides, in assay [17], the “% inhibition of the fungal growth … at 50 μM” value came to 100%.
In the case of `CC(C)CC(=O)Nc1cc(-c2c(-c3ccc(F)cc3)nn3c2CCCC3)ccn1` [Example 30], the efficacy in % in assay [1] is recorded as 80%; in assay [2] it was 99%; in [3] it was 100%; in assay [4], 94%; in assay [5] it was 100%; in assay [7], 95%. Besides, the efficacy in % in assay [8] turned out to be 95%; in assay [9], 90%; in assay [10], 88%; in assay [11], 96%; in assay [12], 100%; in assay [13], 86%. Moreover, the efficacy in % in assay [14] was found to be 100%; in assay [15], 88%; in [16], 100%. In assay [6], the “% inhibition of DON/AcDON at 50 μM” value is listed as 99%. In [17], the “% inhibition of the fungal growth … at 50 μM” value is on record as 88%.
In the case of `CC(C)CC(=O)Nc1cc(-c2c(-c3ccccc3)nn3c2CCCC3)ccn1` [Example 31], the efficacy in % in [1] is on record as 80%; in assay [2], 100%; in [3], 94%; in assay [4], 98%; in assay [5], 100%; in [7], 94%. The efficacy in % turned out to be 95% in [8]; 90% in [9]; 94% in [10]; 95% in assay [11]; 90% in [12]; 100% in assay [13]. Also, the efficacy in % in assay [14] is 100%; in [15], 100%; in assay [16], 100%; in assay [18], 80%. The “% inhibition of DON/AcDON at 50 μM” value in [6] is 99%. Further, the “% inhibition of the fungal growth … at 50 μM” value in [17] is listed as 97%.
As to `CC(C)C(=O)Nc1cc(-c2c(-c3ccc(F)cc3)nn3c2CCCC3)ccn1` [Example 28], the efficacy in % worked out at 95% in assay [1]; 100% in assay [2]; 100% in assay [3]; 90% in assay [4]; 100% in [5]; 95% in assay [7]. Besides, the efficacy in % in assay [8] is given as 100%; in assay [9], 90%; in [10], 100%; in assay [11], 95%; in assay [12], 95%; in assay [13] it was 100%. In addition, the efficacy in % in assay [14] worked out at 100%; in [15], 100%; in [16], 100%; in assay [18] it was 85%. Also, the “% inhibition of DON/AcDON at 50 μM” value in [6] was determined as 99%. For the same molecule, the “% inhibition of the fungal growth … at 50 μM” value in assay [17] stood at 100%.
Turning to `CC(=O)Nc1cc(-c2c(-c3ccccc3)nn3c2CCCC3)ccn1` [Example 19], the efficacy in % in [1] worked out at 100%; in assay [2], 93%; in [3] it was 100%; in assay [4], 92%; in [5], 100%; in [7], 94%. Besides, the efficacy in % in assay [8] was 98%; in assay [9] it was 95%; in assay [10], 100% and 95%; in assay [11], 96%; in [12], 99%; in assay [13] it was 100%. Besides, the efficacy in % in [14], in assay [15] and in [16] was 100% each time. Further, in assay [6], the “% inhibition of DON/AcDON at 50 μM” value came out at 100%. Besides, the “% inhibition of the fungal growth … at 50 μM” value in assay [17] was 100%.
